Test results from US12390536B2, “Antibody-drug complex containing toll-like receptor 7/8 dual agonist compound” (ASTELLAS PHARMA INC., priority 2022, dated 2025).
Structures can show the parent of a compound that is named as a salt.

molecular target: T1, human TLR7 (Homo sapiens, UniProt Q9NYK1); test: TLR7/8 reporter assay (HEK293, NFκB Nanoluc luciferase reporter), human TLR7; type: cell-based; settings: 24-hour incubation; read-out: hTLR7 EC50
T1 construct: expressed in transfected cells
T1 sequence (Q9NYK1 27-1049): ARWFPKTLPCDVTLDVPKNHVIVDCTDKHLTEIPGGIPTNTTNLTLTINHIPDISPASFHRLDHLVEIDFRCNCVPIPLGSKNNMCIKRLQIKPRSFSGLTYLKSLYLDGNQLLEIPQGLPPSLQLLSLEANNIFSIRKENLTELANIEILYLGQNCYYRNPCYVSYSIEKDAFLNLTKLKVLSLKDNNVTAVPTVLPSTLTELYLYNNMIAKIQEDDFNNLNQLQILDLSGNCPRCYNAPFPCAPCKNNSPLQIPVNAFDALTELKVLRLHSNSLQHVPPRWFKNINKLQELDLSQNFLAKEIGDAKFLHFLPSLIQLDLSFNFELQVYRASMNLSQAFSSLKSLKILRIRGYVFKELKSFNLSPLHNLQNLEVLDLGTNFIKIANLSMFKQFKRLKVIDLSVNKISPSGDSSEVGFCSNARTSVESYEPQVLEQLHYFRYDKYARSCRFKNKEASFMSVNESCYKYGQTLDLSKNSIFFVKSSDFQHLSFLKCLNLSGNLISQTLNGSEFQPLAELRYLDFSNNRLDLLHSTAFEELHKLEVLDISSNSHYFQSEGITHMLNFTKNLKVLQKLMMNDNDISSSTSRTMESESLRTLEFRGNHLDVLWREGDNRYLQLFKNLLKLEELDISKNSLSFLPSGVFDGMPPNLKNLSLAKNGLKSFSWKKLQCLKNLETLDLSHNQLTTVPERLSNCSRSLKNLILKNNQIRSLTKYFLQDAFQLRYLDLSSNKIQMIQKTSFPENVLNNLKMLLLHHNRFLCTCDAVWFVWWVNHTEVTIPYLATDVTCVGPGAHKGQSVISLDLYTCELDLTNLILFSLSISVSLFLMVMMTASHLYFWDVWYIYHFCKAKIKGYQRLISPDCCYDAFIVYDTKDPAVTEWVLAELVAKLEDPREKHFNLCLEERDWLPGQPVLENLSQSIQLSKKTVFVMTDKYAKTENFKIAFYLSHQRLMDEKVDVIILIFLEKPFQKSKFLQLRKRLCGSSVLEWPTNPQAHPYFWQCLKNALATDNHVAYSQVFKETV
Description: HEK293 cells (ATCC, #CRL-1573) were co-transfected with an expression vector having a nucleotide sequence encoding a TLR (human TLR7, human TLR8 or mouse TLR7) protein and a Nanoluc PEST luciferase reporter vector having an NFκB response element sequence (Genbank: JQ513377 bases 33 to 84) integrated therein. Thereafter, the transfected cells were cultured in DMEM (Sigma-Aldrich, #D5796-500 mL) containing Geneticin (Gibco, #10131-027) at a final concentration of 800 μg/mL, Hygromycin B (Invitrogen, #10687010) at a final concentration of 500 μg/mL, penicillin streptomycin (Gibco, #15070-063) at a final concentration of 1% and a 10% fetal bovine serum (FBS) (HyClone, #SH30084.03) to obtain a stable cell line for expression.
To reporter cells obtained above, DMEM containing 10% FBS was added to prepare a suspension of 1×10^5 cells/mL. The suspension was added to the wells of a 384-well white plate coated with collagen I (hereinafter referred to as “384-well plate”, Corning, #356703) at a rate of 20 μL per well. The cells were cultured in the conditions of 37° C. and 5% CO2, overnight (18 hours) and allowed to adhere to the plate. A test sample was dissolved in DMSO. The solution was diluted by adding DMEM medium containing 10% FBS to the solution such that the concentration becomes 5-fold as high as a final concentration. The diluted DMEM medium was added to the wells of the 384-well plate at a ratio of 5 μL/well. After the medium was further incubated in the conditions of 37° C. and 5% CO2 for 24 hours, the plate was taken out and allowed to stand still at room temperature for 10 minutes. Thereafter, chemiluminescence was measured using Nano-Glo Luciferase Assay System (Promega, #N1120) and EnVision 2104 (PerkinElmer) plate reader. A dose-response curve was prepared for each test sample and the EC50 value was obtained as a concentration at 50% of the maximum signal. In the table, hTLR7 represents human TLR7 and hTLR8 represents human TLR8; and mTLR7 represents mouse TLR7. A data item attached with an asterisk (*) indicates the result of 7 hour-incubation and other data items are the results of 24-hour incubation.

SMILES | EC50
CCCCCNc1nc(N)nc2cc(C)n(Cc3ccc(CN4CCNCC4)cc3OC)c12 [Ex8, 5-({2-methoxy-4-[(piperazin-1-yl)methyl]phenyl}methyl)-6-methyl-N^4-pentyl-5H-pyrrolo[3,2-d]pyrimidine-2,4-diamine hydrochloride] | 11.3 nM
CCCCCNc1nc(N)nc2ccn(Cc3ccc(CC4CCNCC4)cc3OC)c12 [Ex9, 5-({2-methoxy-4-[(piperidin-4-yl)methyl]phenyl}methyl)-N^4-pentyl-5H-pyrrolo[3,2-d]pyrimidine-2,4-diamine] | 2.78 nM
CCCCCNc1nc(N)nc2ccn(Cc3ccc(CNC4CC4)cc3OC)c12 [Ex3, 5-({4-[(cyclopropylamino)methyl]-2-methoxyphenyl}methyl)-N^4-pentyl-5H-pyrrolo[3,2-d]pyrimidine-2,4-diamine] | 3.47 nM
CCCCCNc1nc(N)nc2c(Cl)cn(Cc3ccc(CN4CC[C@H]4CO)cc3OC)c12 [Ex17] | 2.52 nM
COc1cc(CN2CCNC[C@H]2CF)ccc1Cn1ccc2nc(N)nc(SCc3cc(C)on3)c21 [Ex11] | 17.8 nM
CCCCCNc1nc(N)nc2ccn(Cc3ccc(CN4CCN[C@@H](CF)C4)cc3OC)c12 [Ex2, 5-[(4-{[(3R)-3-(fluoromethyl)piperazin-1-yl]methyl}-2-methoxyphenyl)methyl]-N^4-pentyl-5H-pyrrolo[3,2-d]pyrimidine-2,4-diamine (trifluoroacetic acid) salt] | 1.77 nM
CCCCCSc1nc(N)nc2ccn(Cc3ccc(CN4CCC(O)CC4)cc3OC)c12 [Ex14] | 28.8 nM
CCCCCNc1nc(N)nc2c(Br)cn(Cc3ccc(CN4CCC[C@H]4CO)cc3OC)c12 [Ex7, {(2S)-1-[(4-{[2-amino-7-bromo-4-(pentylamino)-5H-pyrrolo[3,2-d]pyrimidin-5-yl]methyl}-3-methoxyphenyl)methyl]pyrrolidin-2-yl}methanol] | 8.1 nM
CCCCCSc1nc(N)nc2ccn(Cc3ccc(CN4CC[C@@H](CN)C4)cc3OC)c12 [Ex15] | 138 nM
CCCCCSc1nc(N)nc2ccn(Cc3ccc(CN4CCNCC4)cc3OC)c12 [Ex4, 5-({2-methoxy-4-[(piperazin-1-yl)methyl]phenyl}methyl)-4-(pentylsulfanyl)-5H-pyrrolo[3,2-d]pyrimidin-2-amine] | 54.2 nM
CCCCCNc1nc(N)nc2ccn(Cc3ccc(CNCC4CCC4)cc3OC)c12 [Ex12] | 1.87 nM
CCCCCNc1nc(N)nc2ccn(Cc3ccc(CN4CCNC[C@@H]4CF)cc3OC)c12 [Ex10, 5-[(4-{[(2R)-2-(fluoromethyl)piperazin-1-yl]methyl}-2-methoxyphenyl)methyl]-N^4-pentyl-5H-pyrrolo[3,2-d]pyrimidine-2,4-diamine] | 2.74 nM
CCCCCSc1nc(N)nc2ccn(Cc3ccc(CN4CC[C@H]4CO)cc3OC)c12 [Ex13] | 23.3 nM
CCCCCNc1nc(N)nc2ccn(Cc3ccc(CN4CCNC[C@H]4CF)cc3OC)c12 [Ex1, 5-[(4-{[(2S)-2-(fluoromethyl)piperazin-1-yl]methyl}-2-methoxyphenyl)methyl]-N^4-pentyl-5H-pyrrolo[3,2-d]pyrimidine-2,4-diamine] | 1.12 nM
CCCCCNc1nc(N)nc2c(Cl)cn(Cc3ccc(CN4CCC[C@H]4CO)cc3OC)c12 [Ex6, {(2S)-1-[(4-{[2-amino-7-chloro-4-(pentylamino)-5H-pyrrolo[3,2-d]pyrimidin-5-yl]methyl}-3-methoxyphenyl)methyl]pyrrolidin-2-yl}methanol] | 3.22 nM
CCCCCSc1nc(N)nc2ccn(Cc3ccc(CN4CCC[C@H]4CO)cc3OC)c12 [Ex5, {(2S)-1-[(4-{[2-amino-4-(pentylsulfanyl)-5H-pyrrolo[3,2-d]pyrimidin-5-yl]methyl}-3-methoxyphenyl)methyl]pyrrolidin-2-yl}methanol] | 45 nM
CCCCCNc1nc(N)nc2c(Cl)cn(Cc3ccc(CN4CCC[C@H]4C(C)(C)O)cc3OC)c12 [Ex18] | 6.57 nM
